Values of other authors in patent US8993316B2, “Methods and compositions for gene therapy and GHRH therapy” (priority 2011, dated 2015).

Assays:
[1] = not given; remark: listed apart in the source

| Compound | rough half-life (in vivo) [h] | therapeutic effect duration (long acting) [h] | half-life after injection [1] |
| --- | --- | --- | --- |
| COc1cc(CC(C)N)c(OC)cc1I (stereo not drawn) [DOI, 2,5-dimethoxy-4-iodoamphetamine] | 12 to 15 | ≥ 30 | – |
| GHRH: growth hormone releasing hormone, a peptide hormone | – | – | roughly 8 minutes |
